Measurements from the kinase profiling compilation of Christmann-Franck et al. (2016).

Legend:
Experiment in all cases: radiometric filter-binding kinase assay
AURKA (human) = AURKA (human) (UniProt O14965)
BRSK2 (human) = BRSK2 (human) (UniProt Q8IWQ3)
BTK (human) = BTK (human) (UniProt Q06187)
CAMKK2 (human) = CAMKK2 (human) (UniProt Q96RR4)
CHEK1 (human) = CHEK1 (human) (UniProt O14757)
HIPK1 (human) = HIPK1 (human) (UniProt Q86Z02)
IGF1R (human) = IGF1R (human) (UniProt P08069)
IKBKE (human) = IKBKE (human) (UniProt Q14164)
INSR (human) = INSR (human) (UniProt P06213)
INSRR (human) = INSRR (human) (UniProt P14616)
MAPK13 (human) = MAPK13 (human) (UniProt O15264)
MAPKAPK3 (human) = MAPKAPK3 (human) (UniProt Q16644)
MINK1 (human) = MINK1 (human) (UniProt Q8N4C8)
MYLK (human) = MYLK (human) (UniProt Q15746)
[1] = test system: PAK2 (human), Q13177 [T402E]
PAK6 (human) = PAK6 (human) (UniProt Q9NQU5)
PHKG1 (human) = PHKG1 (human) (UniProt Q16816)
ROCK2 (rat) = settings: accession and sequence are those of the human protein
RPS6KA3 KD1 KD2 (human) = RPS6KA3 KD1 KD2 (human) (UniProt P51812)
SRPK1 (human) = SRPK1 (human) (UniProt Q96SB4)
Sequence of SRPK1 (human) (Q96SB4 whole entry, looked up): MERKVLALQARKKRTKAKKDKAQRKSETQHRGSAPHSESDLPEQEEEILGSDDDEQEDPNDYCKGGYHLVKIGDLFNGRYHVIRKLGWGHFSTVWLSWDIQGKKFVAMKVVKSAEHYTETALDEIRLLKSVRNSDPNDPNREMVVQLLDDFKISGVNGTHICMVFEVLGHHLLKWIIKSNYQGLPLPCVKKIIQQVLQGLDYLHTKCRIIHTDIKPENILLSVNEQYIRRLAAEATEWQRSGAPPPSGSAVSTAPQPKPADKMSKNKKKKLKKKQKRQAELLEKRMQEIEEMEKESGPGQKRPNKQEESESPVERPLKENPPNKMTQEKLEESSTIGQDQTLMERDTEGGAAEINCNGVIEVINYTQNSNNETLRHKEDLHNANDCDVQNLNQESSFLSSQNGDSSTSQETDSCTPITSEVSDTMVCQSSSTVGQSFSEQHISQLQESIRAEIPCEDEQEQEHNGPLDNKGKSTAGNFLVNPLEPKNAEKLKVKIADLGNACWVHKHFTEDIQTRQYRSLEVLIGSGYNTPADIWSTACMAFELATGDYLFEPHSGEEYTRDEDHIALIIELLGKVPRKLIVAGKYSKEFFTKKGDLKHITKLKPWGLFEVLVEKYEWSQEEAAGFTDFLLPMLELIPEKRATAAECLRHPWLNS

Sequence of MYLK (human) (Q15746 whole entry, looked up): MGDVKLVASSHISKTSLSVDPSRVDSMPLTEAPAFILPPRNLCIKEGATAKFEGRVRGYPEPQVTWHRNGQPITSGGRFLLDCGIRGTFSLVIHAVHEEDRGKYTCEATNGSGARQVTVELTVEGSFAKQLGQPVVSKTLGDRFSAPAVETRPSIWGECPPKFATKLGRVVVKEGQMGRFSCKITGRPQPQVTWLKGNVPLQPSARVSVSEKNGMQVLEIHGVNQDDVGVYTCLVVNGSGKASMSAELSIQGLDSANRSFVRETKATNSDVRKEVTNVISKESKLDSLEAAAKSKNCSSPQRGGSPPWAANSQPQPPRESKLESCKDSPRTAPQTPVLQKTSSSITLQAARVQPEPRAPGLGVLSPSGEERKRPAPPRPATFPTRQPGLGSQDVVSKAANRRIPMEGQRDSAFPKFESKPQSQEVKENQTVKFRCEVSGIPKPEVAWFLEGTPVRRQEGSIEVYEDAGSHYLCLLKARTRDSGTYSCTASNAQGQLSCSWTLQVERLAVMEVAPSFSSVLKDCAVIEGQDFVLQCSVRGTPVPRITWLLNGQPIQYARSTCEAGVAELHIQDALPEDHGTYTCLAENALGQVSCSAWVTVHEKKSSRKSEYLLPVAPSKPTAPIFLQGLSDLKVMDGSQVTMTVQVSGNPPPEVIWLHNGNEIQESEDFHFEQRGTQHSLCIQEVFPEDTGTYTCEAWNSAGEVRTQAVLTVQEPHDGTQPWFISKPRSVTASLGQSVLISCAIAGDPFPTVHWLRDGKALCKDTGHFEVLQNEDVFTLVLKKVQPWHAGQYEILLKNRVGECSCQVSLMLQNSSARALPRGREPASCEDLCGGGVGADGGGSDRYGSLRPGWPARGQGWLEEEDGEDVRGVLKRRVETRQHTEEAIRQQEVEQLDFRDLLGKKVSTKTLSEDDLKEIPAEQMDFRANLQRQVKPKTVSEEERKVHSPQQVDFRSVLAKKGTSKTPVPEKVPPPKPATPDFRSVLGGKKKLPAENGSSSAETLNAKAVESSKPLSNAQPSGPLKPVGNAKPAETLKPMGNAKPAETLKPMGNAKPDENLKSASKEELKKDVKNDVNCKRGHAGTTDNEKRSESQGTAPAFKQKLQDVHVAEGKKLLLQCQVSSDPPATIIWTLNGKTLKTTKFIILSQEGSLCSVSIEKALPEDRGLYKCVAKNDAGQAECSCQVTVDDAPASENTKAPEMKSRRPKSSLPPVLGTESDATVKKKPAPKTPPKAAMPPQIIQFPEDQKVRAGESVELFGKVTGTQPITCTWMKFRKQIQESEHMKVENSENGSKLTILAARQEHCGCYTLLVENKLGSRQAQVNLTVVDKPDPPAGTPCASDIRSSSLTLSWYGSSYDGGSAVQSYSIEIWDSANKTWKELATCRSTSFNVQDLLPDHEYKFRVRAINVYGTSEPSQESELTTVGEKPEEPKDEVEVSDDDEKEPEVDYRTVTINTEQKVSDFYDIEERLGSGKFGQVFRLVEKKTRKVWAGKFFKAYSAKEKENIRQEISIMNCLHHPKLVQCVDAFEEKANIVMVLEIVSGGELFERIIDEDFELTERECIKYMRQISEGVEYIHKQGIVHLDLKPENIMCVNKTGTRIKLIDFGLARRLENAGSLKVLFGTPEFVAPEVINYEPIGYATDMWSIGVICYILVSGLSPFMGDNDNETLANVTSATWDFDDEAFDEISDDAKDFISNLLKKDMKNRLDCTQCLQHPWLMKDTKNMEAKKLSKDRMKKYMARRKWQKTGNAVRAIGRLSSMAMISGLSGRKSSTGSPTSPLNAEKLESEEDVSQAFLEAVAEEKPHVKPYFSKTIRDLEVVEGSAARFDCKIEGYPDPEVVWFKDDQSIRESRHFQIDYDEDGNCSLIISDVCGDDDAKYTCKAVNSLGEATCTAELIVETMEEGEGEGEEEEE
Sequence of IGF1R (human) (P08069 whole entry, looked up): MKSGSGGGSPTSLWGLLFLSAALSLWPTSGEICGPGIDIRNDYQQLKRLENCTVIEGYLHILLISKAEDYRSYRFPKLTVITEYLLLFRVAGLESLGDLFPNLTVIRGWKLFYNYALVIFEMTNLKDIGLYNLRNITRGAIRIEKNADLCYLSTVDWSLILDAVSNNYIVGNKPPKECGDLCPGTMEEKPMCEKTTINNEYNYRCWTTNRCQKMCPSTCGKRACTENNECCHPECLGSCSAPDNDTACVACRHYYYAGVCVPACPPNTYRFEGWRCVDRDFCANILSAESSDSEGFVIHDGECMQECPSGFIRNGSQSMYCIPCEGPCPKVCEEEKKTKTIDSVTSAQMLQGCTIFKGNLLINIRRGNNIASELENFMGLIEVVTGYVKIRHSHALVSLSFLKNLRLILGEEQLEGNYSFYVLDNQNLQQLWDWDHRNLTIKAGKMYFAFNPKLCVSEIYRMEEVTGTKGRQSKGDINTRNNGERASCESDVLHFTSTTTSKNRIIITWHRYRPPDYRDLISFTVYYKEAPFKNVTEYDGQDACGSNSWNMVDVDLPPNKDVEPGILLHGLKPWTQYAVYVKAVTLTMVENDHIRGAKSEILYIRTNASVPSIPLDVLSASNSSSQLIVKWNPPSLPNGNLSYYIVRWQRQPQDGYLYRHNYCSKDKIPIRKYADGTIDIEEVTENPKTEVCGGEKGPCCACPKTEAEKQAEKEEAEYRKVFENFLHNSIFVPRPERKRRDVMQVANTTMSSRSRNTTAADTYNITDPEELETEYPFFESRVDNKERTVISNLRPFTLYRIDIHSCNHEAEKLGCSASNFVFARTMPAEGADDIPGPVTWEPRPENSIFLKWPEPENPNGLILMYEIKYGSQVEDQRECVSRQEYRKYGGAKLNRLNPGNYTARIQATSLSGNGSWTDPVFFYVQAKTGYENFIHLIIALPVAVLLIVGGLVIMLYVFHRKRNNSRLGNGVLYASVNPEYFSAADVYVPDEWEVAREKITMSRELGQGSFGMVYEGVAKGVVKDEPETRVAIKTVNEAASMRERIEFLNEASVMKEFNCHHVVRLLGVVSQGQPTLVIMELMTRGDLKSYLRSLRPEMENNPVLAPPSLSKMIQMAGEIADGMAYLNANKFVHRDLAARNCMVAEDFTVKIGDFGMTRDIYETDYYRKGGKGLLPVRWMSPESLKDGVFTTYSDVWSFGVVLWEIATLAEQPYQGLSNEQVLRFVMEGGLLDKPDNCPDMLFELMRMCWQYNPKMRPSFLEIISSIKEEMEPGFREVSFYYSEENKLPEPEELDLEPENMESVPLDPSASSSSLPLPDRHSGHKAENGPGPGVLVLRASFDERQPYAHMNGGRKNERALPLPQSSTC
Sequence of AURKA (human) (O14965 whole entry, looked up): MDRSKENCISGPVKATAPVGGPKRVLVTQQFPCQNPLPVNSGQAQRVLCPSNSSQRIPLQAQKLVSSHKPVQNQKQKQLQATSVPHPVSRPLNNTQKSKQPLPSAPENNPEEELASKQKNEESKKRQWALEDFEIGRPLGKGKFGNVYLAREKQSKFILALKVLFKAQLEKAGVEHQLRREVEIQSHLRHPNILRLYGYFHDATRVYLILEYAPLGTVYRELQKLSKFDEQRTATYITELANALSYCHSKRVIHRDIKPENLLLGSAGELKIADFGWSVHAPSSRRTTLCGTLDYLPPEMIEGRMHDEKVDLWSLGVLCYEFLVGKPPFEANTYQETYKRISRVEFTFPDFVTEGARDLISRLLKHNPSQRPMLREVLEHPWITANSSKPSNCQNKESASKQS
Sequence of PAK6 (human) (Q9NQU5 whole entry, looked up): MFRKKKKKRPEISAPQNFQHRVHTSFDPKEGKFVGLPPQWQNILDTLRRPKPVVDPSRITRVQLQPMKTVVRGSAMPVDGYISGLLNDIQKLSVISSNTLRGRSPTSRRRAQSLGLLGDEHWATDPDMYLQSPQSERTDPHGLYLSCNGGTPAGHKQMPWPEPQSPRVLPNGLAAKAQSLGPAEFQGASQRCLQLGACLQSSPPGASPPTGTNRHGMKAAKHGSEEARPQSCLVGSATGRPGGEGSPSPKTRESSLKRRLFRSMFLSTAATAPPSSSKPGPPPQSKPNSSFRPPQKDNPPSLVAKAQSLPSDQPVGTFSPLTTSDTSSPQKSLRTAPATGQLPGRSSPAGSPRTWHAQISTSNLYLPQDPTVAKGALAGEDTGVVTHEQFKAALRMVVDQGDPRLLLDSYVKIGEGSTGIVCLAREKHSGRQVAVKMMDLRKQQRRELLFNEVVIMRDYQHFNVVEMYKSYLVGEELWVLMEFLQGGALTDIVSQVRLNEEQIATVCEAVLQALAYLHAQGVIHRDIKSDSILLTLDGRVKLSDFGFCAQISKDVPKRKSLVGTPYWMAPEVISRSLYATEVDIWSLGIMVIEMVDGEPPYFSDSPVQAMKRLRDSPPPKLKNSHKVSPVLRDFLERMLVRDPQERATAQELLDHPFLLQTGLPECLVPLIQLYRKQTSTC

residual activity (AURKA (human); compound 0.01 µM): 112% | residual activity (AURKA (human); compound 0.1 µM): 115% | residual activity (AURKA (human); compound 1.0 µM): 92% | residual activity (BRSK2 (human); compound 0.01 µM): 114% | residual activity (BRSK2 (human); compound 0.1 µM): 110% | residual activity (BTK (human); compound 0.01 µM): 126% | residual activity (BTK (human); compound 0.1 µM): 121% | residual activity (BTK (human); compound 1.0 µM): 110% | residual activity (CAMKK2 (human); compound 0.01 µM): 112% | residual activity (CAMKK2 (human); compound 0.1 µM): 123% | residual activity (CAMKK2 (human); compound 1.0 µM): 127% | residual activity (CHEK1 (human); compound 0.01 µM): 111% | residual activity (CHEK1 (human); compound 0.1 µM): 106% | residual activity (CHEK1 (human); compound 1.0 µM): 104% | residual activity (HIPK1 (human); compound 0.01 µM): 102% | residual activity (HIPK1 (human); compound 0.1 µM): 105% | residual activity (HIPK1 (human); compound 1.0 µM): 102% | residual activity (IGF1R (human); compound 0.01 µM): 126% | residual activity (IGF1R (human); compound 0.1 µM): 115% | residual activity (IGF1R (human); compound 1.0 µM): 107% | residual activity (IKBKE (human); compound 0.01 µM): 114% | residual activity (IKBKE (human); compound 0.1 µM): 97% | residual activity (IKBKE (human); compound 1.0 µM): 74% | residual activity (INSR (human); compound 0.01 µM): 101% | residual activity (INSR (human); compound 0.1 µM): 103% | residual activity (INSR (human); compound 1.0 µM): 102% | residual activity (INSRR (human); compound 0.01 µM): 111% | residual activity (INSRR (human); compound 0.1 µM): 111% | residual activity (INSRR (human); compound 1.0 µM): 109% | residual activity (MAPK13 (human); compound 0.01 µM): 106% | residual activity (MAPK13 (human); compound 0.1 µM): 113% | residual activity (MAPK13 (human); compound 1.0 µM): 108% | residual activity (MAPKAPK3 (human); compound 0.01 µM): 112% | residual activity (MAPKAPK3 (human); compound 0.1 µM): 112% | residual activity (MAPKAPK3 (human); compound 1.0 µM): 100% | residual activity (MINK1 (human); compound 0.01 µM): 121% | residual activity (MINK1 (human); compound 0.1 µM): 110% | residual activity (MINK1 (human); compound 1.0 µM): 105% | residual activity (MYLK (human); compound 0.01 µM): 116% | residual activity (MYLK (human); compound 0.1 µM): 113% | residual activity (MYLK (human); compound 1.0 µM): 92% | residual activity ([1]; compound 0.01 µM): 105% | residual activity ([1]; compound 0.1 µM): 119% | residual activity ([1]; compound 1.0 µM): 105% | residual activity (PAK6 (human); compound 0.01 µM): 108% | residual activity (PAK6 (human); compound 0.1 µM): 120% | residual activity (PAK6 (human); compound 1.0 µM): 124% | residual activity (PHKG1 (human); compound 0.01 µM): 106% | residual activity (PHKG1 (human); compound 0.1 µM): 108% | residual activity (PHKG1 (human); compound 1.0 µM): 103% | residual activity (ROCK2 (rat); compound 0.01 µM): 96% | residual activity (ROCK2 (rat); compound 0.1 µM): 92% | residual activity (ROCK2 (rat); compound 1.0 µM): 70% | residual activity (RPS6KA3 KD1 KD2 (human); compound 0.01 µM): 96% | residual activity (RPS6KA3 KD1 KD2 (human); compound 0.1 µM): 97% | residual activity (RPS6KA3 KD1 KD2 (human); compound 1.0 µM): 79% | residual activity (SRPK1 (human); compound 0.01 µM): 106% | residual activity (SRPK1 (human); compound 0.1 µM): 120% | residual activity (SRPK1 (human); compound 1.0 µM): 106%
Compound: CNc1nc(-c2ccc3c(N)n[nH]c3c2)cc(N2C[C@@H](C(=O)NC3CCCCC3)CC[C@H]2C)n1
